Reference: patent publication US20250122193A1, “NOVEL PYRIDOCARBAZOLIUM COMPOUNDS AND MEDICAL USES THEREOF” (MyCural Therapeutics, priority 2021, published 2025)

Tests used:
[1] = system: MYC/BCL-XL-driven acute myeloblastic leukemia
Method: A) Schematic plan of the experiment B) Flow cytometry analysis of GFP^+ leukemic blasts in bone marrow on day 11 (n=5), day 15 (n=5), and at the end point (n=9) after daily i.p. injection of 12.5 mg/kg MYCMI-7, compared with vehicle (n=3) mice. C). H&E and MYC immunohistochemistry (IHC) stainings of spleen sections at the endpoint. Images were taken at 10× magnification. D) quantification of MYC IHC stainings of spleen sections at the endpoint. E) Western blot analysis of cleaved caspase 3 and H3K9me3 expression in spleens at endpoint after treating mice with MYCMI-7 or vehicle (3 mice from each condition). Actin was used as loading control. At the end points, the last injection was done 3 hrs before sacrifice.
3×10^5 cells were injected into each recipient C57BL mouse after irradiation (600 rad). AML-like leukemia initiation was confirmed via flow cytometry and Giemsa staining, at day 8 after transplantation. MYCMI-7 were then administrated intraperitoneally daily at a dose of 12.5 mg/kg. Liver, spleen and bone marrow were extracted at day 11, 15 and endpoint for measurement. In addition, body weight of mouse in each group was also collected every 4th day until the endpoint of the experiment.
We next investigated potential anti-tumor effects of MYCMI-7 in vivo. […] The mice were then sacrificed according to scheme illustrated in FIG. 7A.

MYCN = target: T1, MYCN (Homo sapiens, UniProt P04198); assay: MYCN expression in Kelly neuroblastoma cells; type: cell-based
T1 construct: endogenous in cells; host or cells: Kelly neuroblastoma cells
Method: (§1) For western blot equal amounts of proteins ([…]) were separated on a 4-12% SDS-PAGE gel. Proteins were transferred to Immobilion-P membrane (Millipore) and detected by immunostaining and chemoluminescence (Immobilion western HRP substrate; Millipore). For immunoprecipitations 500-1000 μg of protein was used. […] Briefly, cells were crosslinked with 1% formaldehyde on ice for 6 minutes. Nuclear chromatin was sonicated on ice to fragments from 0.3 kb to 0.5 kb. Nuclear chromatin equivalent to 2.5×10^7 cells was immunoprecipitated with 2 μg antibody.

MYC:MAX interaction = MYC:MAX interaction (Homo sapiens, UniProt P01106); assay: split Gaussia luciferase (GLuc) assay, MYC:MAX; type: cell-based; set-up: replacing the existing Zip-gene (GCN4) with full length MYC, MYCN or MAX cDNA; expressed in transfected cells; host or cells: HeLa; settings: 5 μM
Chain of MYC:MAX interaction (P01106 16-454): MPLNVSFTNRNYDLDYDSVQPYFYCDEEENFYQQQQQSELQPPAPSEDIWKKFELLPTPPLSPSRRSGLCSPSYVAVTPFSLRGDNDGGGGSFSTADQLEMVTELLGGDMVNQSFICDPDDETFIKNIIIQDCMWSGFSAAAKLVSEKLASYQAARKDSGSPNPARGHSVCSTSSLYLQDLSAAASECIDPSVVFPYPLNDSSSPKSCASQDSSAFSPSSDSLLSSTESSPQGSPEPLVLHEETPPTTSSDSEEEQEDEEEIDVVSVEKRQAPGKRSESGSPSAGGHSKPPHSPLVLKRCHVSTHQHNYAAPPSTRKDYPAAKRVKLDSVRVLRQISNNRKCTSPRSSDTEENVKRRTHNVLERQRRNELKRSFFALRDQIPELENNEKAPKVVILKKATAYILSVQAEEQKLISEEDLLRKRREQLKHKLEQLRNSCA
Method: A) Molecular structure of MYCMI-7. B-E) split Gaussia luciferase (GLuc) assay. MYC or MYCN and MAX Gluc constructs were co-transfected into HeLa cells together with a firefly luciferase vector. 24 hours post transfection cells were treated with compounds, and after another 17-24 hours cells were harvested and both GLuc and firefly luciferase activities were measured. The mean of three different experiments is shown. Treatment with: B) 5 μM of MYCMI-7, 64 μM 10058-F4 or 5 μM JQ1, respectively, C) 6.5 μM MYCMI-7 on cells expressing MYC:MAX GLuc vs. GCN4:GCN4 GLuc, D) 5 μM MYCMI-7 and 5 μM ellipticine. E) 5 μM MYCMI-7 for various time points. F) in situ proximity ligation assay (isPLA). […] MYC:GAL4 was used as negative control in the isPLA assay. G) Quantification of isPLA dots. (H) Co-immunoprecipitation (co-IP) of endogenous MYC and MAX proteins from MCF7 cells after treatment with 5 μM MYCMI-7 at various times. IP=immunoprecipitation; W=western blot. I) Chromatin immunoprecipitation (ChIP) of MYC at the ODC1 target gene promoter after treatment of cells with 5 μM MYCMI-7 for 6 hours. J) MYC target gene ODC1 expression after treatment with 5 μM MYCMI-7, quantified by qPCR. K) ChIP of MYC at the ODC promoter in MCF7 cells after 5 μM MYCMI-7 treatment for indicated time points. L) Recombinant MYC bHLHZip protein domain immobilized onto a CM5 chip was subjected to various concentrations of MYCMI-7 and the complex of MYCbHLHZip-MYCMI-7 was measured as response units by SPR. The sensogram was produced by subtracting the blank response.
0.2-0.4 μg of each GLuc-construct together with 0.05 μg pCMV-LUC (firefly luciferase) were used per transfection in 12 well plates. 24 hours later cells were treated with compound or DMSO. After another 17 hours, the cells were harvested and lyzed in passive lysis buffer (Promega) supplemented with complete protease inhibitor (Roche). After 60 min incubation at room temperature 20 μM D-luciferin was added (substrate of Firefly luciferase) and luminescence was measured in a Lumat LB9501 (Berthold) or OmegaFluostar (BMG Labtech) luminometer. Directly after, Gaussia luciferase substrate Coelenterazine (Promega) was added to a final concentration of 20 μM in a mixture with “Stop n' Glow” (Promega) and the luciferase activity was measured. The ratio between Gaussia and Firefly luciferase values were calculated and normalized to DMSO-treated control cells.

MYC protein [2] = assay: steady state MYC protein level by western blot; type: cell-based; settings: reconstituted HO15.19 MYC knockout Rat1 cells, 5 μM overnight
Method: (§2) FIG. 2: MYCMI-7 downregulates MYC and MYCN protein expresión. A) Steady state levels of MYC protein in MCF7 cells after 17 hours exposure to indicated concentrations MYCMI-7 or ellipticine B) MYC mRNA expression in MCF7 cells after treatment with MYCMI-7 for various time points. C) Steady state levels of MYC protein in different HCT116 cell lines (WT, FBW7−/− or p53−/−) after 17 hours exposure to 5 μM MYCMI-7. Endogenous MYC was immunoprecipitated and detected by western blot analysis. D) Cycloheximide (CHX) chase in HCT116 cells. Cells were subjected to 5 μM MYCMI-7 30 min prior cycloheximide addition. Cells were harvested after the indicated time points, MYC was immunoprecipitated using N262 antibody and the MYC levels analyzed using western blot (C33 antibody). E) CHX chase after MYCMI-7 treatment performed as in (D) using Fbxw7-deficient HCT116 cells. F) Stable expression of wt, T58A or S62A MYC in HO15.19 MYC−/− cells. The cells were treated with 5 μM MYCMI-7 overnight, and MYC expression was analyzed by western blot. G) Cartoon showing a linear structural representation of wt MYC and indicated mutants. H-J) Expression of MYC mutants after MYCMI-7 treatment. COS-7 cells were transfected with CMV-driven vectors containing HA-tagged wt MYC or mutants for 24 hrs and treated with 5 μM MYCMI-7 for 17 hrs. The DN (H) and DC (I) MYC mutants encodes the C-terminal and N-terminal halves of the MYC protein, respectively. DBr (J) lacks the DNA-binding basic region of the protein. A-J). Representative western blots out of at least three experiments are shown.
as §1

MYC protein [3] = target: MYC protein (Homo sapiens, UniProt P01106); assay: steady state MYC protein level by western blot; type: cell-based; settings: for MYC protein level: 17 hours, 5 μM
Chain of MYC protein (Homo sapiens, UniProt P01106) (P01106 16-454): as above
Method: as §2, §1

[4] = endpoint, compared with vehicle

T1 sequence (P04198 whole entry): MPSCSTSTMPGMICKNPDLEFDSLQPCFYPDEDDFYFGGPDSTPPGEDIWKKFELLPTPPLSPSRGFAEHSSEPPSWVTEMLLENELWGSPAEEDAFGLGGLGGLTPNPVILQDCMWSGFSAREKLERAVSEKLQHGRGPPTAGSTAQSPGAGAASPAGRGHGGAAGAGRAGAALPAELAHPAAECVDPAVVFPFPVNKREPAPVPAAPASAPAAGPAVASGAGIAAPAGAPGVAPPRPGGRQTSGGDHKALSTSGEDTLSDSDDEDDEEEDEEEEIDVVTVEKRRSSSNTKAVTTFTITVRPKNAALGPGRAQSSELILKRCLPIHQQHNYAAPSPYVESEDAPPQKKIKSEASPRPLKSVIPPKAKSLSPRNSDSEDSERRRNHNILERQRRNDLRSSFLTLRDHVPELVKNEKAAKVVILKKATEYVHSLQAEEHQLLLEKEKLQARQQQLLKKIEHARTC

## CCN(CC)CC[n+]1ccc2c(C)c3[nH]c4ccccc4c3c(C)c2c1 [MYCMI-7, 2-(5,11-Dimethyl-6H-25-pyrido[4,3-b]carbazol-2-yl)-N,N-diethylethanamine bromide]
[1]; 12.5 mg/kg daily i.p.
  body weight: retained their weight
  mouse survival: no significant difference
  side effects: no signs of severe side effects
[1]; 12.5 mg/kg daily i.p., day 15
  GFP positive leukemic cells in bone marrow: undetectable
[1]; 12.5 mg/kg daily i.p., end point (20+/−4 days)
  leukemic cells in bone marrow: around 10%
[1]; endpoint, compared to vehicle
  spleen structure: retained a more normal spleen structure
[1]; [4]
  MYC expression in leukemic cells (IHC): strongly reduced
  cleaved caspase 3 and H3K9me3 in leukemic spleens (western blot): increased expression
MYCN
  Expression of MYCN: reduced
MYC:MAX interaction
  time of treatment within which MYC:MAX interaction was inhibited: ≤ 4 h
MYC:MAX interaction; HeLa cells
  inhibition of MYC:MAX GLuc interaction: inhibited
MYC protein [2]
  levels of wt, T58A and S62A MYC: reduced the levels of both wt and the MYC mutants
MYC protein [3]
  phosphorylation of MYC at Thr-58 or Ser-62: did not increase
MYC protein [3]; FBXW7−/− HCT116 cells
  MYC protein level: unaffected
MYC protein [3]; MCF7 cells, 17 hrs, 5 μM MYCMI-7
  steady state level of MYC protein: decreased drastically
MYC protein [3]; wt and p53 null HCT116 cells
  MYC protein level: strongly reduced
